Test results from patent publication EP4458830A1, “TRICYCLIC COMPOUND, METHOD FOR PREPARING SAME, AND USE THEREOF” (Sichuan Kelun-Biotech Biopharmaceutical Co., Ltd., priority 2021, dated 2023).

Biological target: T1, human TLR7 (Homo sapiens, UniProt Q9NYK1)
T1 construct: host or cells: HEK-Blue hTLR7 cells (HEK293-derived reporter line; that the line is stably transfected with the human TLR7 gene is own knowledge of the vendor's product)
T1 sequence (Q9NYK1 27-1049): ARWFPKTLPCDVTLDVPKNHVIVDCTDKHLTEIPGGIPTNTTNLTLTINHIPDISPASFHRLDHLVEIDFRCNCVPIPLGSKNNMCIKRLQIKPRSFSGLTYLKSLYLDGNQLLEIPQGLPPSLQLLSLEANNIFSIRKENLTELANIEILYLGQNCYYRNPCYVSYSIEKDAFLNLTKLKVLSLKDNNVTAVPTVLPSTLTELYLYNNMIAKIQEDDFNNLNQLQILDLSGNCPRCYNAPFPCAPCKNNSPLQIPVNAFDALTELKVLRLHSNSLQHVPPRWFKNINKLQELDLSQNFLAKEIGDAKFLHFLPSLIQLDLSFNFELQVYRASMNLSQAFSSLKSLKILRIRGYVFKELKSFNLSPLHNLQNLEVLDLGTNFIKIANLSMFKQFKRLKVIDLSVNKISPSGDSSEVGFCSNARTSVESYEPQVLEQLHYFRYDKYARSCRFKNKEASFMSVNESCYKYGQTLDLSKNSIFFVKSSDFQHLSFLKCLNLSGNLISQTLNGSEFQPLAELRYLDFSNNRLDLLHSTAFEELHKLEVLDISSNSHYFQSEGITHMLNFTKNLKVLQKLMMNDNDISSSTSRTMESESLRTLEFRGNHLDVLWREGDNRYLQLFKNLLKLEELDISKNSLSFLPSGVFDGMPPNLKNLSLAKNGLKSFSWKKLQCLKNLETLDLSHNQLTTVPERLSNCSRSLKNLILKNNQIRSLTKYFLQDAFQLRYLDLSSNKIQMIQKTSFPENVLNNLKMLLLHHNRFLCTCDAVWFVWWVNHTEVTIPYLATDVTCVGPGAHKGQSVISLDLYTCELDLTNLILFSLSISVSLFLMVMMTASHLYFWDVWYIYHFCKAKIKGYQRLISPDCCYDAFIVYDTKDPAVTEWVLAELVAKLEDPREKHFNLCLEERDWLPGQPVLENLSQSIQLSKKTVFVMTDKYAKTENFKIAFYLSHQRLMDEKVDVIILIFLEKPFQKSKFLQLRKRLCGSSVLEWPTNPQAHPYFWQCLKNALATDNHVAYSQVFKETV
Assay: Agonistic activity of compounds on HEK-Blue hTLR7 cells (QUANTI-Blue reporter, OD620)
Type: cell-based
Conditions: for EC50 / Emax: HEK-Blue hTLR7 cells; for EC50: 20 h incubation; for Emax: OD620 at which the activation effect reached the maximum; for activation effect on human TLR7: summary in words
Protocol: • 1. HEK-Blue hTLR7 cells (Invivogen) were cultured in DMEM medium (Hyclone) containing 10% FBS heat-inactivated fetal bovine serum (Corning). On the day of detection, the cell state was observed under a microscope, the cells were collected and resuspended, and the cell concentration was adjusted after counting, 50 µL per well, the total amount of cells was 2×10^4, and the cells were inoculated in a 96-well plate. • 2. After the cells adhered to the wall overnight, 50 µL of the test compound at different concentrations was added into the well plate, so that the final concentrations were 100 µM, 33.3 µM, 11.11 µM, 3.70 µM, 1.23 µM, 0.41 µM, 0.14 µM, 0.05 µM, 0 µM, and the final concentration of DMSO was 1%. The compound was incubated with the cells in a 37°C, 5% CO2 incubator for 20 h. • 3. After the incubation, observation under microscope was performed to determine the maximum signal well, the states of the cells with the highest and lowest concentrations of the compound, and whether the compound will crystalize at high concentration. 10 µL of cell culture supernatant was taken and transferred to a new 96-well transparent plate, 90 µL of QUANTI-Blue (Invivogen) detection reagent was added to each well, and incubated at 37°C for 3 h, and OD620 was read with a multifunctional microplate reader (BMG LABTECH). • 4. EC50 was calculated by fitting with Graphpad Prism software log(agonist) vs. response - Variable slope, and Emax was the OD620 at which the activation effect of the test compound reached the maximum.

SMILES | EC50 [nM] | Emax [OD620] | activation effect on human TLR7
CCCCc1nc2c(N)nc3cc(C4CCN(C)CC4)sc3c2n1CC1CCN(C)CC1 [Compound 38, 2-butyl-7-(1-methylpiperidin-4-yl)-1-((1-methylpiperidin-4-yl)methyl)-1H-imidazo[4,5-d]thieno[3,2-b]pyridine-4-amine] | 1300 | 0.49 | strong activation effect
CCCCc1nc2c(N)nc3cc(C)sc3c2n1CC1CCN(CCOCCOCCN)CC1 [Compound 15, 1-((1-(2-(2-(2-aminoethoxy)ethoxy)ethyl)piperidin-4-yl)methyl)-2-butyl-7-methyl-1H-imidazo[4,5-d]thieno[3,2-b]pyridine-4-amine] | 1420 | 2.40 | strong activation effect
CCCCc1nc2c(N)nc3cc(C4CCOCC4)sc3c2n1CC1CCN(C)CC1 [Compound 40, 2-butyl-1-((1-methylpiperidin-4-yl)methyl)-7-(tetrahydro-2H-pyran-4-yl)-1H-imidazo[4,5-d]thieno[3,2-b]pyridine-4-amine] | 580 | 1.83 | strong activation effect
CCCCc1nc2c(N)nc3cc(C)sc3c2n1CC1CCN(CCOCCOCCOCCOCCOCCOCCOC)CC1 [Compound 16, 1-((1-(2,5,8,11,14,17,20-heptaoxadocosan-22-yl)piperidin-4-yl)methyl)-2-butyl-7-methyl-1H-imidazo[4,5-d]thieno[3,2-b]pyridine-4-amine] | 1690 | 2.18 | strong activation effect
CCCCc1nc2c(N)nc3cc(C)sc3c2n1CC1CCN(C(=O)CCOCCOCCN)CC1 [Compound 17, 1-(4-((4-amino-2-butyl-7-methyl-1H-imidazo[4,5-d]thieno[3,2-b]pyridin-1-yl)methyl)piperidin-1-yl)-3-(2-(2-aminoethoxy)ethoxy)propan-1-one] | 1160 | 2.23 | strong activation effect
CCCCc1nc2c(N)nc3cc(C4CCN(C(C)=O)CC4)sc3c2n1CC1CCOCC1 [Compound 59, 1-{4-[4-amino-2-butyl-1-(3,4,5,6-tetrahydro-2H-pyran-4-ylmethyl)thieno[3,2-b]imidazo[4,5-d]pyridin-7-yl]hexahydropyridin-1-yl}ethyl-1-one] | 40 | 1.45 | strong activation effect
COCCc1nc2c(N)nc3ccsc3c2n1CC1CCN(C)CC1 [Compound 56, 2-(2-methoxyethyl)-1-[(1-methylhexahydropyridin-4-yl)methyl] thieno[3,2-b]imidazo[4,5-d]pyridine-4-amine] | 460 | 1.41 | strong activation effect
CCOCc1nc2c(N)nc3ccsc3c2n1CCCCN [Compound 5, 1-(4-aminobutyl)-2-(2-ethoxymethyl)-1H-imidazo[4,5-d] thieno[3,2-b]pyridine-4-amine] | 3250 | 1.46 | strong activation effect
CCCCc1nc2c(N)nc3cc(C4CCN(C)CC4)sc3c2n1CC1CCN(CCOC)CC1 [Compound 42, 2-butyl-1-{[1-(2-methoxyethyl)hexahydropyridin-4-yl]methyl}-7-(1-methylhexahydropyridin-4-yl)thieno[3,2-b]imidazo[4,5-d]pyridine-4-amine] | 1430 | 0.65 | strong activation effect
CCCCc1nc2c(N)nc3cc(C4CCN(C)CC4)sc3c2n1C [Compound 32, 2-butyl-1-methyl-7-(1-methylpiperidin-4-yl)-1H-imidazo[4,5-d] thieno[3,2-b]pyridine-4-amine] | 1260 | 0.91 | strong activation effect
COCCc1nc2c(N)nc3ccsc3c2n1CCCCN [Compound 4, 1-(4-aminobutyl)-2-(2-methoxyethyl)-1H-imidazo[4,5-d]thieno[3,2-b]pyridine-4-amine] | 2410 | 1.74 | strong activation effect
CCCCc1nc2c(N)nc3cc(C)sc3c2n1CC1CCN(C)CC1 [Compound 28, 2-butyl-7-methyl-1-((1-methylpiperidin-4-yl)methyl)-1H-imidazo[4,5-d]thieno[3,2-b]pyridine-4-amine] | 200 | 1.39 | strong activation effect
CCCCc1nc2c(N)nc3cc(C4CCN(C)CC4)sc3c2n1CC1CCOCC1 [Compound 34, 2-butyl-7-(1-methylpiperidin-4-yl)-1-((tetrahydro-2H-pyran-4-yl)methyl)-1H-imidazo[4,5-d]thieno[3,2-b]pyridine-4-amine] | 83 | 1.21 | strong activation effect
CCCCc1nc2c(N)nc3cc(C4=CCN(C)CC4)sc3c2[nH]1 [Compound 8, 2-butyl-7-(1-methyl-1,2,3,6-tetrahydropyridin-4-yl)-1H-imidazo [4,5-d]thieno[3,2-b]pyridine-4-amine] | 2500 | 0.56 | strong activation effect
CCCCc1nc2c(N)nc3ccsc3c2n1CC1CCNCC1 [Compound 25, 2-butyl-1-(piperidin-4-ylmethyl)-1H-imidazo[4,5-d]thieno[3,2-b] pyridine-4-amine] | 140 | 2.08 | strong activation effect
COCCc1nc2c(N)nc3ccsc3c2n1CC1CCNCC1 [Compound 55, 1-(hexahydropyridin-4-ylmethyl)-2-(2-methoxyethyl) thieno[3,2-b]imidazo[4,5-d]pyridine-4-amine] | 1480 | 1.44 | strong activation effect
CCCCc1nc2c(N)nc3cc(C)sc3c2n1CC1CCOCC1 [Compound 26, 2-butyl-7-methyl-1-((tetrahydro-2H-pyran-4-yl)methyl)-1H-imidazo[4,5-d]thieno[3,2-b]pyridine-4-amine] | 50 | 1.78 | strong activation effect
CCCCc1nc2c(N)nc3cc(C4CCNCC4)sc3c2n1CC1CCN(CCOC)CC1 [Compound 41, 2-butyl-7-(hexahydropyridin-4-yl)-1-{[1-(2-methoxyethyl)hexahydropyridin-4-yl]methyl}thieno[3,2-b]imidazo[4,5-d]pyridine-4-amine] | 5050 | 0.84 | strong activation effect
